Measurements reported in US9376425B2, “Heterocyclic compounds as MDM2 inhibitors for the treatment of cancer” (AMGEN INC., priority 2011, dated 2016).

Biological target: T1, human MDM2 (GST-hMDM2 1-188), interaction with biotinylated-p53 (1-83) (Homo sapiens, UniProt Q00987)
T1 construct: Amino acid residues 1-188 of human MDM2 were expressed; made in house; host or cells: Escherichia coli
Assay: improved HTRF assay (HTRF2 assay), inhibition of HDM2-p53 interaction
Assay type: binding
Details: 0.2 nM GST-hMDM2, 0.5 nM biotinylated-p53, 100 mM KF
Method: Residues 1-83 of human p53 were expressed as an amino-terminal AviTag™-TrxA-6xHis fusion protein (biotinylated p53) in E. coli. Each protein was purified from cell paste by affinity chromatography.
Specifically, 10 uL of GST-hMDM2 was incubated with 10 ul of diluted compound (various concentrations, serially diluted) in 10% DMSO for 20 minutes at room temperature. 20 uL of biotinylated-p53 was added to the GST-hMDM2+ compound mixture, and then incubated at room temperature for 60 min. 10 uL of detection buffer consisting of SA-XLent, anti-GST cryptate antibody and KF was added to GST-hMDM2, biotinylated-p53 and compound reaction and left at room temperature to reach equilibrium for >4 hrs. The final concentration of DMSO in the reaction was 2%. Time-resolved fluorescence readings were measured on a microplate multilabel reader. Percentage of inhibition was calculated relative to nutlin-3.

T1 sequence (Q00987 1-188): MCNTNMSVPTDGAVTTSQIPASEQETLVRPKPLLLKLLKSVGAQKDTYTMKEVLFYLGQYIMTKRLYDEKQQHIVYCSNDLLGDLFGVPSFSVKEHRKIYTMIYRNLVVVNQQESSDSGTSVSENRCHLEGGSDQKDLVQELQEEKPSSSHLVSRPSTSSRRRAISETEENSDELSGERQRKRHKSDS

SMILES	IC50 [nM]
CC[C@@H](CS(=O)(=O)C(C)C)N1C(=O)[C@@H](CC(=O)O)O[C@H](c2cc(Cl)cc(Cl)c2)[C@H]1c1ccc(Cl)cc1 (single isomer, unassigned) [Example 146, 2-((2R,5R,6R)-5-(4-chlorophenyl)-6-(3,5-dichlorophenyl)-4-((S)-1-(isopropylsulfonyl)butan-2-yl)-3-oxomorpholin-2-yl)acetic acid or 2-((2S,5R,6R)-5-(4-chlorophenyl)-6-(3,5-dichlorophenyl)-4-((S)-1-(isopropylsulfonyl)butan-2-yl)-3-oxomorpholin-2-yl)acetic acid]	15
CC[C@@H](CS(=O)(=O)C(C)(C)C)N1C(=O)[C@@H](CC(=O)O)O[C@H](c2cc(Cl)cc(Cl)c2)[C@H]1c1ccc(Cl)cc1 (single isomer, unassigned) [Example 147, 2-((2R,5R,6R)-5-(4-chlorophenyl)-6-(3,5-dichlorophenyl)-4-((S)-1-(tert-butylsulfonyl)butan-2-yl)-3-oxomorpholin-2-yl)acetic acid or 2-((2S,5R,6R)-5-(4-chlorophenyl)-6-(3,5-dichlorophenyl)-4-((S)-1-(tert-butylsulfonyl)butan-2-yl)-3-oxomorpholin-2-yl)acetic acid]	6
CC[C@@H](CS(=O)(=O)C(C)(C)C)N1C(=O)[C@@H](CC(=O)O)O[C@H](c2cc(Cl)cc(Cl)c2)[C@H]1c1ccc(Cl)cc1 (single isomer, unassigned) [Example 148, 2-((2R,5R,6R)-5-(4-chlorophenyl)-6-(3,5-dichlorophenyl)-4-((S)-1-(tert-butylsulfonyl)butan-2-yl)-3-oxomorpholin-2-yl)acetic acid or 2-((2S,5R,6R)-5-(4-chlorophenyl)-6-(3,5-dichlorophenyl)-4-((S)-1-(tert-butylsulfonyl)butan-2-yl)-3-oxomorpholin-2-yl)acetic acid]	7
CC(C)S(=O)(=O)C[C@H](C1CC1)N1C(=O)[C@@H](CC(=O)O)O[C@H](c2cccc(Cl)c2)[C@H]1c1ccc(Cl)cc1 (single isomer, unassigned) [Example 156, 2-((2R,5R,6R)-6-(3-chlorophenyl)-5-(4-chlorophenyl)-4-((S)-1-cyclopropyl-2-(isopropylsulfonyl)ethyl)-3-oxomorpholin-2-yl)acetic acid or 2-((2S,5R,6R)-6-(3-chlorophenyl)-5-(4-chlorophenyl)-4-((S)-1-cyclopropyl-2-(isopropylsulfonyl)ethyl)-3-oxomorpholin-2-yl)acetic acid]	1
CC(C)S(=O)(=O)C[C@H](C1CC1)N1C(=O)[C@@H](CC(=O)O)O[C@H](c2cccc(Cl)c2)[C@H]1c1ccc(Cl)cc1 (single isomer, unassigned) [Example 157, 2-((2R,5R,6R)-6-(3-chlorophenyl)-5-(4-chlorophenyl)-4-((S)-1-cyclopropyl-2-(isopropylsulfonyl)ethyl)-3-oxomorpholin-2-yl)acetic acid or 2-((2S,5R,6R)-6-(3-chlorophenyl)-5-(4-chlorophenyl)-4-((S)-1-cyclopropyl-2-(isopropylsulfonyl)ethyl)-3-oxomorpholin-2-yl)acetic acid]	1
O=C(O)C[C@H]1O[C@H](c2cccc(Cl)c2)[C@@H](c2ccc(Cl)cc2)N([C@H](CN(c2ccccc2F)S(=O)(=O)C2CC2)C2CC2)C1=O (single isomer, unassigned) [Example 158, 2-((2R,5R,6R)-6-(3-chlorophenyl)-5-(4-chlorophenyl)-4-((S)-1-cyclopropyl-2-(N-(2-fluorophenyl)cyclopropanesulfonamido)ethyl)-3-oxomorpholin-2-yl)acetic acid or 2-((2S,5R,6R)-6-(3-chlorophenyl)-5-(4-chlorophenyl)-4-((S)-1-cyclopropyl-2-(N-(2-fluorophenyl)cyclopropanesulfonamido)ethyl)-3-oxomorpholin-2-yl)acetic acid]	< 1
O=C(O)C[C@H]1O[C@H](c2cccc(Cl)c2)[C@@H](c2ccc(Cl)cc2)N([C@H](CN(c2ccccc2F)S(=O)(=O)C2CC2)C2CC2)C1=O (single isomer, unassigned) [Example 159, 2-((2R,5R,6R)-6-(3-chlorophenyl)-5-(4-chlorophenyl)-4-((S)-1-cyclopropyl-2-(N-(2-fluorophenyl)cyclopropanesulfonamido)ethyl)-3-oxomorpholin-2-yl)acetic acid or 2-((2S,5R,6R)-6-(3-chlorophenyl)-5-(4-chlorophenyl)-4-((S)-1-cyclopropyl-2-(N-(2-fluorophenyl)cyclopropanesulfonamido)ethyl)-3-oxomorpholin-2-yl)acetic acid]	< 1
CC[C@@H](CS(=O)(=O)C(C)(C)C)N1C(=O)[C@@H](CC(=O)O)O[C@H](c2cccc(Cl)c2)[C@@]1(C)c1ccc(Cl)cc1 (single isomer, unassigned) [Example 162, 2-((2R,5R,6R)-4-((S)-1-(tert-butylsulfonyl)butan-2-yl)-6-(3-chlorophenyl)-5-(4-chlorophenyl)-5-methyl-3-oxomorpholin-2-yl)acetic acid or 2-((2S,5R,6R)-4-((S)-1-(tert-butylsulfonyl)butan-2-yl)-6-(3-chlorophenyl)-5-(4-chlorophenyl)-5-methyl-3-oxomorpholin-2-yl)acetic acid]	6250
CC[C@@H](CS(=O)(=O)C(C)(C)C)N1C(=O)[C@@H](CC(=O)O)O[C@H](c2cccc(Cl)c2)[C@@]1(C)c1ccc(Cl)cc1 (single isomer, unassigned) [Example 163, 2-((2R,5R,6R)-4-((S)-1-(tert-butylsulfonyl)butan-2-yl)-6-(3-chlorophenyl)-5-(4-chlorophenyl)-5-methyl-3-oxomorpholin-2-yl)acetic acid or 2-((2S,5R,6R)-4-((S)-1-(tert-butylsulfonyl)butan-2-yl)-6-(3-chlorophenyl)-5-(4-chlorophenyl)-5-methyl-3-oxomorpholin-2-yl)acetic acid]	6620
CC[C@@H](CN(c1ccccc1F)S(=O)(=O)C1(C)CC1)N1C(=O)[C@@H](CC(=O)O)O[C@H](c2cccc(Cl)c2)[C@H]1c1ccc(Cl)cc1 (single isomer, unassigned) [Example 174, 2-((2R,5R,6R)-6-(3-chlorophenyl)-5-(4-chlorophenyl)-4-((S)-1-(N-(2-fluorophenyl)-1-methylcyclopropanesulfonamido)butan-2-yl)-3-oxomorpholin-2-yl)acetic acid or 2-((2S,5R,6R)-6-(3-chlorophenyl)-5-(4-chlorophenyl)-4-((S)-1-(N-(2-fluorophenyl)-1-methylcyclopropanesulfonamido)butan-2-yl)-3-oxomorpholin-2-yl)acetic acid]	< 1
CC[C@@H](CN(c1ccccc1F)S(=O)(=O)C1(C)CC1)N1C(=O)[C@@H](CC(=O)O)O[C@H](c2cccc(Cl)c2)[C@H]1c1ccc(Cl)cc1 (single isomer, unassigned) [Example 175, 2-((2R,5R,6R)-6-(3-chlorophenyl)-5-(4-chlorophenyl)-4-((S)-1-(N-(2-fluorophenyl)-1-methylcyclopropanesulfonamido)butan-2-yl)-3-oxomorpholin-2-yl)acetic acid or 2-((2S,5R,6R)-6-(3-chlorophenyl)-5-(4-chlorophenyl)-4-((S)-1-(N-(2-fluorophenyl)-1-methylcyclopropanesulfonamido)butan-2-yl)-3-oxomorpholin-2-yl)acetic acid]	< 1
CC[C@@H](CN(c1ncccc1F)S(=O)(=O)C1CC1)N1C(=O)[C@@H](CC(=O)O)O[C@H](c2cccc(Cl)c2)[C@H]1c1ccc(Cl)cc1 (single isomer, unassigned) [Example 176, 2-((2R,5R,6R)-6-(3-chlorophenyl)-5-(4-chlorophenyl)-4-((S)-1-(N-(3-fluoropyridin-2-yl)cyclopropanesulfonamido)butan-2-yl)-3-oxomorpholin-2-yl)acetic acid or 2-((2S,5R,6R)-6-(3-chlorophenyl)-5-(4-chlorophenyl)-4-((S)-1-(N-(3-fluoropyridin-2-yl)cyclopropanesulfonamido)butan-2-yl)-3-oxomorpholin-2-yl)acetic acid]	< 1
CC[C@@H](CN(c1ncccc1F)S(=O)(=O)C1CC1)N1C(=O)[C@@H](CC(=O)O)O[C@H](c2cccc(Cl)c2)[C@H]1c1ccc(Cl)cc1 (single isomer, unassigned) [Example 177, 2-((2R,5R,6R)-6-(3-chlorophenyl)-5-(4-chlorophenyl)-4-((S)-1-(N-(3-fluoropyridin-2-yl)cyclopropanesulfonamido)butan-2-yl)-3-oxomorpholin-2-yl)acetic acid or 2-((2S,5R,6R)-6-(3-chlorophenyl)-5-(4-chlorophenyl)-4-((S)-1-(N-(3-fluoropyridin-2-yl)cyclopropanesulfonamido)butan-2-yl)-3-oxomorpholin-2-yl)acetic acid]	< 1
C=CC[C@@H]1O[C@H](c2cccc(Cl)c2)[C@@H](c2ccc(Cl)cc2)N([C@@H](CC)CN(c2ccccn2)S(=O)(=O)C2CC2)C1=O (single isomer, unassigned) [Example 178, N-((S)-2-((2S,5R,6R)-2-allyl-6-(3-chlorophenyl)-5-(4-chlorophenyl)-3-oxomorpholino)butyl)-N-(pyridin-2-yl)cyclopropanesulfonamide or N-((S)-2-((2R,5R,6R)-2-allyl-6-(3-chlorophenyl)-5-(4-chlorophenyl)-3-oxomorpholino)butyl)-N-(pyridin-2-yl)cyclopropanesulfonamide]	182
